Experimental data reported in patent publication US20240059689A1, “PURINE DERIVATIVES AS ANTICANCER AGENTS” (Tango Therapeutics, Inc., priority 2021, published 2024).
Like-named read-outs stand apart in the source and are kept apart here.

Experiments:
[1] = test system: HCC1954; assay: Viability assay, BRCA1 WT cell line HCC1954; type: cell-based; conditions: read-out: HCC1954 rel IC50
Source text: (§1) Table 1 also indicates IC50 values in a viability assay for a non-isogenic pair of BRCA1 mutant (column 5-MDA-MB-436) and BRCA1 WT (column 6—HCC1954) cell lines. These values indicate the effect of treatment with compound on cell survival.

[2] = molecular target: USP1-UAF1 (Homo sapiens, UniProt O94782); assay: Ubiquitin Rhodamine assay of USP1-UAF1 activity; type: biochemical
Chain of USP1-UAF1 (O94782 whole entry): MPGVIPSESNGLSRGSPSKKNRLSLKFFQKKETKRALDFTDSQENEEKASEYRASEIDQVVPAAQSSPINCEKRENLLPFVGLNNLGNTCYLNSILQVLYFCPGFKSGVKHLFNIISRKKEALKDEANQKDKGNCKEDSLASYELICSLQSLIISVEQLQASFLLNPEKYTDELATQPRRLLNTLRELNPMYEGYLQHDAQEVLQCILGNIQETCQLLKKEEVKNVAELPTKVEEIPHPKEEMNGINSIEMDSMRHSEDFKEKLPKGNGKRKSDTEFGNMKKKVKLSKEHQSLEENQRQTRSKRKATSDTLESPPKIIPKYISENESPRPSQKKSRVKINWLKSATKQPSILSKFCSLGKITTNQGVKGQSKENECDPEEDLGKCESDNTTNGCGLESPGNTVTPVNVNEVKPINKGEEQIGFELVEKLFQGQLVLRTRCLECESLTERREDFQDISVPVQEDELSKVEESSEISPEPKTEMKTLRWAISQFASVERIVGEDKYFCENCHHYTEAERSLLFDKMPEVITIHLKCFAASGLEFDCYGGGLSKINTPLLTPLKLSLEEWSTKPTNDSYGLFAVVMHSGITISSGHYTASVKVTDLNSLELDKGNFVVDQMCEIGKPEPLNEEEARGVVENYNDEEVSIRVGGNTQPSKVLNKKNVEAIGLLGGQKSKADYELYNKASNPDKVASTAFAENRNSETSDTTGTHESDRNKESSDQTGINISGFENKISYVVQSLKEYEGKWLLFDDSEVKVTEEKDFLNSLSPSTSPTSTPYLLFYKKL
Chain of USP1-UAF1 (Q8TAF3 whole entry partner): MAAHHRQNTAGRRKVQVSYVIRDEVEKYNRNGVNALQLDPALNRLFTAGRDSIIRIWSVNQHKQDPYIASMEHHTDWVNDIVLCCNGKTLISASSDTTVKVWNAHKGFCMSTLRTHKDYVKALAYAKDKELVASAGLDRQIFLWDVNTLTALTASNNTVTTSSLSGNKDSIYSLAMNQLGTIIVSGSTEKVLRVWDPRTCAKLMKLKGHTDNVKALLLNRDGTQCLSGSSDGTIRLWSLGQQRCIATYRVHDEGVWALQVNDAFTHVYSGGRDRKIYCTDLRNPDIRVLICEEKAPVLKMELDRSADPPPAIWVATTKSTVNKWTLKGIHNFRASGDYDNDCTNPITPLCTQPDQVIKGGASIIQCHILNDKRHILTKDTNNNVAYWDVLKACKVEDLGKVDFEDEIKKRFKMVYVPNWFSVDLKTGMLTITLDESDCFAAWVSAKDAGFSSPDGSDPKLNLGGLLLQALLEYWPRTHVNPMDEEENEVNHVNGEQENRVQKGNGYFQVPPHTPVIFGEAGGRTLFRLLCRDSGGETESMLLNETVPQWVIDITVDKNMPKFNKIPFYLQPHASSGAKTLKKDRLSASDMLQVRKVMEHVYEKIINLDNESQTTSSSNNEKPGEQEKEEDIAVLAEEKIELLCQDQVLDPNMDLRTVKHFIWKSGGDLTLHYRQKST
Method: Certain compounds of the disclosure were assessed for USP1-UAF1 activity in a Ubiquitin Rhodamine assay as described in Biology Example 1.

[3] = test system: monoubiquitinated PCNA; assay: AlphaLISA assay measuring monoubiquitinated PCNA in MDA-MB-436; type: cell-based; conditions: Homo sapiens, MDA-MB-436, monoubiquitinated PCNA, read-out: Alpha Lisa IC50
Source text: Table 1 also indicates IC50 values for exemplary compounds in an AlphaLISA assay measuring monoubiquitinated PCNA in a BRCA1 mutant cell line (MDA-MB-436; column 7).

[4] = test system: MDA-MB-436; assay: Viability assay, BRCA1 mutant cell line MDA-MB-436; type: cell-based; conditions: BRCA1 mutant MDA-MB-436, read-out: MDA-MB-436 rel IC50
Source text: as §1

[5] = Homo sapiens, HCC1954, viability
[6] = Homo sapiens, MDA-MB-436, viability

Compound	IC50 [1, 5] [µM]	IC50 [2] [nM]	IC50 [3] [nM]	IC50 [4, 6] [nM]	IC50 ([1]; viability) [µM]	IC50 ([4]; viability) [nM]
CC(C)c1ccccc1-c1ncc2c(n1)n(C(C)C1CCN(c3nc(Cl)cn3C)CC1)c(=N)n2C (single isomer, unassigned) [Example A-26c, 9-(1-(1-(4-chloro-1-methyl-1H-imidazol-2-yl)piperidin-4-yl)ethyl)-2-(2-isopropylphenyl)-7-methyl-7,9-dihydro-8H-purin-8-imine]		100 to 10000	250 to 10000	250 to 10000	0.25 to 10	
CC(C)c1ccccc1-c1nc(C#N)c2c(n1)n(Cc1ccc(-c3nc(C(F)(F)F)cn3C)cc1)c(=N)n2C [Example A-13, 8-imino-2-(2-isopropylphenyl)-7-methyl-9-(4-(1-methyl-4-(trifluoromethyl)-1H-imidazol-2-yl)benzyl)-8,9-dihydro-7H-purine-6-carbonitrile]	0.25 to 10	100 to 10000	250 to 10000	250 to 10000		
CCn1cc(C(F)(F)F)nc1-c1ccc(Cn2c(=N)n(CC(F)(F)F)c3cnc(-c4c(OC)ncnc4C4CC4)nc32)cc1 [Example T-132]	≥ 10	30 to 100	< 100	< 100		
Cn1cc(C(F)(F)F)nc1-c1ccc(Cn2c(=N)n(CC(F)(F)F)c3cnc(-c4cccnc4OC(F)F)nc32)cc1 [Example T-125, 2-[2-(difluoromethoxy)-3-pyridyl]-9-[[4-[1-methyl-4-(trifluoromethyl)imidazol-2-yl]phenyl]methyl]-7-(2,2,2-trifluoroethyl)purin-8-imine]	0.25 to 10	30 to 100	100 to 250	100 to 250		
Cc1cc(Cn2c(=N)n(C)c3cnc(-c4ccccc4C(F)(F)F)nc32)ccc1-c1nc(C(F)(F)F)c[nH]1 [Example T-092]	0.25 to 10	30 to 100	250 to 10000	250 to 10000		
COc1ncnc(C2CC2)c1-c1ncc2c(n1)n(Cc1ccc(-n3nc(C(F)(F)F)cc3OC)cc1)c(=N)n2C [Example T-078]	≥ 10	< 30	< 100	< 100		
COc1ncnc(C2CC2)c1-c1ncc2c(n1)n(Cc1ccc(-n3nc(C(F)(F)F)cc3C)cc1)c(=N)n2CC(F)(F)F [Example T-098, 2-(4-cyclopropyl-6-methoxy-pyrimidin-5-yl)-9-[[4-[5-methyl-3-(trifluoromethyl)pyrazol-1-yl]phenyl]methyl]-7-(2,2,2-trifluoroethyl)purin-8-imine]	≥ 10	30 to 100	100 to 250	< 100		
[2H]C([2H])([2H])Oc1ncnc(C2CC2)c1-c1ncc2c(n1)n(Cc1ccc(-c3nc(C(F)(F)F)cn3C)c(CC)c1)c(=N)n2CC(F)(F)F [Example T-105, 2-[4-cyclopropyl-6-(trideuteriomethoxy)pyrimidin-5-yl]-9-[[3-ethyl-4-[1-methyl-4-(trifluoromethyl)imidazol-2-yl]phenyl]methyl]-7-(2,2,2-trifluoroethyl)purin-8-imine]	≥ 10	100 to 10000	250 to 10000	250 to 10000		
CC(C)c1ccccc1-c1ncc2c(n1)n(C(C)c1ccc(-c3nc(Cl)cn3C)cc1)c(=N)n2C (single isomer, unassigned) [Example A-9c, 9-(1-(4-(4-chloro-1-methyl-1H-imidazol-2-yl)phenyl)ethyl)-2-(2-isopropylphenyl)-7-methyl-7,9-dihydro-8H-purin-8-imine]		30 to 100	100 to 250		≥ 10	250 to 10000
CCn1c(=N)n(Cc2ccc(-c3nc(C(F)(F)F)cn3C)cc2)c2nc(-c3c(OC)ncnc3C3CC3)ncc21 [Example T-139, 2-(4-cyclopropyl-6-methoxy-pyrimidin-5-yl)-7-ethyl-9-[[4-[1-methyl-4-(trifluoromethyl)imidazol-2-yl]phenyl]methyl]purin-8-imine]	≥ 10	30 to 100	< 100	< 100		
CCOc1cc(C(F)(F)F)nn1-c1ccc(Cn2c(=N)n(C)c3cnc(-c4ccccc4C(C)C)nc32)cc1 [Example T-032]	0.25 to 10	< 30	100 to 250	< 100		
COc1ncnc(C2CC2)c1-c1ncc2c(n1)n(Cc1ccc(-c3nc(C(F)(F)F)cn3C)c(F)c1)c(=N)n2CC(F)(F)F [Example T-118, 2-(4-cyclopropyl-6-methoxypyrimidin-5-yl)-9-(3-fluoro-4-(1-methyl-4-(trifluoromethyl)-1H-imidazol-2-yl)benzyl)-7-(2,2,2-trifluoroethyl)-7H-purin-8(9H)-imine]	≥ 10	100 to 10000	< 100	< 100		
COc1ncnc(C2CC2)c1-c1ncc2c(n1)n([C@H](C)c1ccc(-n3nc(C(F)(F)F)cc3OC)cc1)c(=N)n2CC(F)(F)F [Example T-109, 2-(4-cyclopropyl-6-methoxy-pyrimidin-5-yl)-9-[(1R)-1-[4-[5-methoxy-3-(trifluoromethyl)pyrazol-1-yl]phenyl]ethyl]-7-(2,2,2-trifluoroethyl)purin-8-imine]	≥ 10	< 30	< 100	< 100		
CCn1cc(C(F)(F)F)nc1-c1ccc([C@@H](C)n2c(=N)n(CC(F)(F)F)c3cnc(-c4c(OC)ncnc4C4CC4)nc32)cc1 [Example T-106, (R)-2-(4-cyclopropyl-6-methoxypyrimidin-5-yl)-9-(1-(4-(1-ethyl-4-(trifluoromethyl)-1H-imidazol-2-yl)phenyl)ethyl)-7-(2,2,2-trifluoroethyl)-7H-purin-8(9H)-imine]	≥ 10	< 30	< 100	< 100		
COc1ncccc1-c1ncc2c(n1)n(Cc1ccc(-c3nc(C(F)(F)F)cn3C)cc1)c(=N)n2CC(F)(F)F [Example T-097, 2-(2-methoxy-3-pyridyl)-9-[[4-[1-methyl-4-(trifluoromethyl)imidazol-2-yl]phenyl]methyl]-7-(2,2,2-trifluoroethyl)purin-8-imine]	≥ 10	30 to 100	250 to 10000	100 to 250		
Cn1cc(C(F)(F)F)nc1-c1ccc(Cn2c(=N)n(C)c3cnc(-c4cccnc4C4CC4)nc32)cc1 [Example T-009, 2-(2-cyclopropyl-3-pyridyl)-7-methyl-9-[[4-[1-methyl-4-(trifluoromethyl)imidazol-2-yl]phenyl]methyl]purin-8-imine]	≥ 10	30 to 100	100 to 250	250 to 10000		
CC(C)c1ccccc1-c1nc(C(N)=O)c2c(n1)n(Cc1ccc(-c3nc(C(F)(F)F)cn3C)cc1)c(=N)n2C [Example A-41, 8-imino-2-(2-isopropylphenyl)-7-methyl-9-(4-(1-methyl-4-(trifluoromethyl)-1H-imidazol-2-yl)benzyl)-8,9-dihydro-7H-purine-6-carboxamide]	0.25 to 10	30 to 100	250 to 10000	250 to 10000		

Continued, values first:

IC50 [1, 5] [µM]	IC50 [2] [nM]	IC50 [3] [nM]	IC50 [4, 6] [nM]	IC50 ([1]; viability) [µM]	IC50 ([4]; viability) [nM]	Compound
0.25 to 10	30 to 100	250 to 10000	250 to 10000			Cc1ccc(-c2ncc3c(n2)n(Cc2ccc(-c4nc(C(F)(F)F)cn4C)cc2)c(=N)n3C)c(C(C)C)c1 [Example T-070, 2-(2-isopropyl-4-methyl-phenyl)-7-methyl-9-[[4-[1-methyl-4-(trifluoromethyl)imidazol-2-yl]phenyl]methyl]purin-8-imine]
≥ 10	100 to 10000	100 to 250	250 to 10000			Cn1cc(C(F)(F)F)nc1-c1ccc(Cn2c(=N)n(C)c3cnc(-c4ccccc4[C@@H](O)C(F)(F)F)nc32)cc1 (single isomer, unassigned) [Example T-148, 2,2,2-trifluoro-[2-[8-imino-7-methyl-9-[[4-[I-methyl-4-(trifluoromethyl)imidazol-2-yl]phenyl]methyl]purin-2-yl]phenyl]ethanol]
≥ 10	< 30	< 100	< 100			CC(C)c1ccccc1-c1ncc2c(n1)n(Cc1ccc(-c3nc(C(F)(F)F)cn3C)cc1)c(=N)n2C [Example B-2, 2-(2-isopropylphenyl)-7-methyl-9-(4-(1-methyl-4-(trifluoromethyl)-1H-imidazol-2-yl)benzyl)-7H-purin-8(9H)-imine]
0.25 to 10	< 30	100 to 250	100 to 250			COn1cc(C(F)(F)F)nc1-c1ccc(Cn2c(=N)n(C)c3cnc(-c4ccccc4C(C)C)nc32)cc1 [Example T-061]
≥ 10	< 30	100 to 250	100 to 250			Cc1cccc(C(C)C)c1-c1ncc2c(n1)n(Cc1ccc(-c3nc(C(F)(F)F)cn3C)cc1)c(=N)n2C [Example T-015, 2-(2-isopropyl-6-methyl-phenyl)-7-methyl-9-[[4-[1-methyl-4-(trifluoromethyl)imidazol-2-yl]phenyl]methyl]purin-8-imine]
≥ 10	30 to 100	100 to 250	100 to 250			Cn1cc(C(F)(F)F)nc1-c1ccc(Cn2c(=N)n(C)c3cnc(-c4ccccc4Cl)nc32)cc1 [Example B-8, 2-(2-chlorophenyl)-7-methyl-9-(4-(1-methyl-4-(trifluoromethyl)-1H-imidazol-2-yl)benzyl)-7,9-dihydro-8H-purin-8-imine]
0.25 to 10	< 30	< 100	< 100			CC(C)c1ccccc1-c1ncc2c(n1)n(Cc1ccc(-c3nc(C(F)(F)F)c(Br)n3C)cc1)c(=N)n2C [Example T-059]
